Test [1] deals with A549 cells. The test can be described thus: in vitro antiproliferation assay, A549 (lung). It counts as cell-based. Particulars: A549 (lung) cells. An outline of the steps:
(§1)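 IC50 values came from standard antiproliferation testing in cultured tumour cells; the A549 and H1299 lines are of lung origin.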

Test [2] deals with H1299 cells. Nature of the test: in vitro antiproliferation assay, H1299 (lung). It counts as cell-based. The note with it: H1299 (lung) cells. A digest of the protocol: as §1

For `COc1cc(Nc2ncc(F)c(Nc3ccc(OC)c(Cl)c3)n2)cc(C(F)(F)F)c1` [compound 810], the 50% inhibitory concentration (IC50) in test [1] (in vitro antiproliferation) is not above 20 µM; in test [2] (in vitro antiproliferation) it was more than 20 µM.

Consider `COc1ccc(Nc2nc(Nc3cc(C)c(C)c(C)c3)ncc2F)cc1Cl` [compound 811], for which the figures for the IC50 in test [1] (in vitro antiproliferation) and in test [2] (in vitro antiproliferation) were not above 20 µM and more than 20 µM, respectively.

As to `COc1cc(Nc2ncc(F)c(Nc3cccc(OC(F)(F)F)c3)n2)cc(OC)c1` [compound 812], the IC50 in test [1] (in vitro antiproliferation) and in test [2] (in vitro antiproliferation) was not above 20 µM throughout.

As for `Cc1cc(C)cc(Nc2ncc(F)c(Nc3cccc(OC(F)(F)F)c3)n2)c1` [compound 813], the IC50 in test [1] (in vitro antiproliferation) and in test [2] (in vitro antiproliferation) was more than 20 µM each time.

With `COc1cc(Nc2ncc(F)c(Nc3cc(C)cc(C)c3)n2)cc(OC)c1` [compound 814], the IC50 in test [1] (in vitro antiproliferation) and in test [2] (in vitro antiproliferation) was not above 20 µM throughout.

In the case of `COc1cc(Nc2ncc(F)c(Nc3cc(C)cc(C)c3)n2)cc(C(F)(F)F)c1` [compound 815], the IC50 in test [1] (in vitro antiproliferation) and in test [2] (in vitro antiproliferation) was not above 20 µM in each case.

Consider `Cc1cc(C)cc(Nc2nc(Nc3cc(C)cc(C(F)(F)F)c3)ncc2F)c1` [compound 816], for which the IC50 is not above 20 µM in test [1] (in vitro antiproliferation) and more than 20 µM in test [2] (in vitro antiproliferation).

As to `COc1cc(Nc2nc(Nc3cc(C)cc(C)c3)ncc2F)cc(C(F)(F)F)c1` [compound 817], the 50% inhibitory concentration (IC50) in test [1] (in vitro antiproliferation) and in test [2] (in vitro antiproliferation) was not above 20 µM throughout.

Consider `COc1cc(Nc2ncc(F)c(Nc3cc(OC)cc(C(F)(F)F)c3)n2)cc(OC)c1` [compound 818], for which the IC50 in test [1] (in vitro antiproliferation) and in test [2] (in vitro antiproliferation) was not above 20 µM throughout.

For `COc1cc(Nc2ncc(F)c(Nc3cc(OC)cc(C(F)(F)F)c3)n2)cc(C(F)(F)F)c1` [compound 819], the IC50 in test [1] (in vitro antiproliferation) and in test [2] (in vitro antiproliferation) was not above 20 µM each time.

For the compound `COc1cc(Nc2nc(Nc3cc(C)cc(C(F)(F)F)c3)ncc2F)cc(C(F)(F)F)c1` [compound 820], the figures for the IC50 in test [1] (in vitro antiproliferation) and in test [2] (in vitro antiproliferation) were more than 20 µM and not above 20 µM, respectively.

Take `COc1cc(Nc2nc(Nc3cc(OC)c(OC)c(OC)c3)ncc2F)cc(C(F)(F)F)c1` [compound 821]: the IC50 in test [1] (in vitro antiproliferation) and in test [2] (in vitro antiproliferation) was not above 20 µM each time.

As to `COc1cc(Nc2nc(Nc3cc(C)c(O)c(Cl)c3)ncc2F)cc(C(F)(F)F)c1` [compound 822], the IC50 in test [1] (in vitro antiproliferation) and in test [2] (in vitro antiproliferation) was not above 20 µM throughout.

As to `COc1cc(Nc2nc(Nc3cc(Cl)cc(Cl)c3)ncc2F)cc(C(F)(F)F)c1` [compound 823], the IC50 in test [1] (in vitro antiproliferation) and in test [2] (in vitro antiproliferation) was not above 20 µM throughout.

Take `COc1cc(Nc2nc(Nc3cc(CO)cc(CO)c3)ncc2F)cc(C(F)(F)F)c1` [compound 824]: the IC50 was not above 20 µM in test [1] (in vitro antiproliferation) and less than 20 µM in test [2] (in vitro antiproliferation).

For the compound `COc1cc(Nc2nc(Nc3cc(C)c(Cl)c(C)c3)ncc2F)cc(C(F)(F)F)c1` [compound 825], the IC50 in test [1] (in vitro antiproliferation) and in test [2] (in vitro antiproliferation) was not above 20 µM each time.

As for `COc1ccc(Nc2nc(Nc3cc(Cl)c(O)c(Cl)c3)ncc2F)cc1Cl` [compound 828], the 50% inhibitory concentration (IC50) in test [1] (in vitro antiproliferation) and in test [2] (in vitro antiproliferation) was not above 20 µM each time.

As to `Oc1c(Cl)cc(Nc2ncc(F)c(Nc3ccc(OC(F)(F)F)c(Cl)c3)n2)cc1Cl` [compound 829], the IC50 in test [1] (in vitro antiproliferation) and in test [2] (in vitro antiproliferation) was not above 20 µM in each case.

As for `COc1ccc(Nc2nc(Nc3cc(Cl)c(OC)c(Cl)c3)ncc2F)cc1Cl` [compound 831], the 50% inhibitory concentration (IC50) in test [1] (in vitro antiproliferation) and in test [2] (in vitro antiproliferation) was more than 20 µM throughout.

`COc1c(Cl)cc(Nc2ncc(F)c(Nc3ccc(OC(F)(F)F)c(Cl)c3)n2)cc1Cl` [compound 832]: the values for the IC50 in test [1] (in vitro antiproliferation) and in test [2] (in vitro antiproliferation) were not above 20 µM and more than 20 µM, respectively.

For the compound `COc1c(Cl)cc(Nc2ncc(F)c(Nc3ccc(Cl)c(Cl)c3)n2)cc1Cl` [compound 834], the IC50 in test [1] (in vitro antiproliferation) and in test [2] (in vitro antiproliferation) was not above 20 µM in each case.

For the compound `COc1cc(Nc2nc(Nc3cc(CO)cc(CO)c3)ncc2F)cc(OC)c1` [compound 842], the IC50 in test [1] (in vitro antiproliferation) and in test [2] (in vitro antiproliferation) was not above 20 µM each time.

On to `COc1ccc(Nc2nc(Nc3cc(CO)cc(CO)c3)ncc2F)cc1Cl` [compound 843], for which the 50% inhibitory concentration (IC50) in test [1] (in vitro antiproliferation) and in test [2] (in vitro antiproliferation) was not above 20 µM throughout.

For the compound `OCc1cc(CO)cc(Nc2ncc(F)c(Nc3ccc(Cl)c(Cl)c3)n2)c1` [compound 844], the IC50 in test [1] (in vitro antiproliferation) and in test [2] (in vitro antiproliferation) was not above 20 µM each time.

For `COc1cc(Nc2nc(Nc3cc(OC)cc(C(F)(F)F)c3)ncc2F)cc(OC)c1` [compound 849], the IC50 in test [1] (in vitro antiproliferation) and in test [2] (in vitro antiproliferation) was not above 20 µM each time.

For `CNC(=O)COc1cccc(Nc2ncc(F)c(N(C)c3cc(OC)cc(OC)c3)n2)c1` [compound 850], the IC50 in test [1] (in vitro antiproliferation) and in test [2] (in vitro antiproliferation) was more than 20 µM throughout.

`COc1cc(Nc2ncc(F)c(N(C)c3cc(OC)cc(OC)c3)n2)cc(OC)c1` [compound 852]: the IC50 in test [1] (in vitro antiproliferation) and in test [2] (in vitro antiproliferation) was not above 20 µM in each case.

For `COc1cc(OC)cc(N(C)c2nc(Nc3ccc(OC)c(Cl)c3)ncc2F)c1` [compound 853], the IC50 in test [1] (in vitro antiproliferation) and in test [2] (in vitro antiproliferation) was more than 20 µM in each case.

Turning to `COc1cc(OC)cc(N(C)c2nc(Nc3ccc(Cl)c(OC)c3)ncc2F)c1` [compound 854], the IC50 in test [1] (in vitro antiproliferation) and in test [2] (in vitro antiproliferation) was more than 20 µM each time.

Consider `COc1cc(Nc2ncc(F)c(Nc3ccc(OC)c(OC)c3)n2)cc(OC)c1` [compound 856], for which the IC50 in test [1] (in vitro antiproliferation) and in test [2] (in vitro antiproliferation) was not above 20 µM throughout.

On to `COc1cc(Nc2nc(Nc3cccc(N4CCN(C(C)=O)CC4)c3)ncc2F)cc(OC)c1` [compound 861], for which the IC50 in test [1] (in vitro antiproliferation) and in test [2] (in vitro antiproliferation) was not above 20 µM each time.

Regarding `COc1ccc(Nc2nc(Nc3cccc(N4CCN(C(C)=O)CC4)c3)ncc2F)cc1OC` [compound 862], the IC50 in test [1] (in vitro antiproliferation) and in test [2] (in vitro antiproliferation) was not above 20 µM each time.

As to `COc1ccc(Nc2nc(Nc3ccc(N4CCN(C(C)=O)CC4)cc3)ncc2F)cc1OC` [compound 863], the IC50 in test [1] (in vitro antiproliferation) and in test [2] (in vitro antiproliferation) was not above 20 µM throughout.

Turning to `COc1ccc(N(C)c2nc(Nc3cc(C)cc(C)c3)ncc2F)cc1OC` [compound 864], the IC50 in test [1] (in vitro antiproliferation) and in test [2] (in vitro antiproliferation) was not above 20 µM in each case.

In the case of `COc1cc(Nc2ncc(F)c(N(C)c3ccc(OC)c(OC)c3)n2)cc(OC)c1` [compound 865], the IC50 in test [1] (in vitro antiproliferation) and in test [2] (in vitro antiproliferation) was not above 20 µM throughout.

As for `COc1cc(Nc2nc(Nc3ccc(N4CCN(C(C)=O)CC4)cc3)ncc2F)cc(OC)c1` [compound 866], the IC50 in test [1] (in vitro antiproliferation) and in test [2] (in vitro antiproliferation) was not above 20 µM in each case.

In the case of `COc1ccc(N(C)c2nc(Nc3cccc(-c4cnco4)c3)ncc2F)cc1OC` [compound 867], the values for the IC50 in test [1] (in vitro antiproliferation) and in test [2] (in vitro antiproliferation) were more than 20 µM and not above 20 µM, respectively.

As for `CNC(=O)COc1cccc(Nc2ncc(F)c(N(C)c3ccc(OC)c(OC)c3)n2)c1` [compound 870], the IC50 in test [1] (antiproliferation) and in test [2] (antiproliferation) was more than 20 µM throughout.

`CNC(=O)c1ccc(Nc2ncc(F)c(Nc3ccc(OC)c(OC)c3)n2)cc1Cl` [compound 871]: the IC50 in test [1] (antiproliferation) and in test [2] (antiproliferation) was not above 20 µM throughout.

Regarding `CNC(=O)c1ccc(Nc2ncc(F)c(Nc3cc(OC)cc(OC)c3)n2)cc1Cl` [compound 872], the concentration for half-maximal inhibition (IC50) in test [1] (antiproliferation) and in test [2] (antiproliferation) was not above 20 µM in each case.

Regarding `CNC(=O)c1ccc(Nc2ncc(F)c(N(C)c3ccc(OC)c(OC)c3)n2)cc1Cl` [compound 875], the IC50 in test [1] (antiproliferation) and in test [2] (antiproliferation) was not above 20 µM throughout.

Turning to `CNS(=O)(=O)c1ccc(Nc2ncc(F)c(Nc3ccc(OC)c(OC)c3)n2)cc1OC` [compound 879], the half-inhibitory concentration (IC50) in test [1] (antiproliferation) and in test [2] (antiproliferation) was not above 20 µM each time.

Consider `CNS(=O)(=O)c1ccc(Nc2ncc(F)c(Nc3cc(OC)cc(OC)c3)n2)cc1OC` [compound 880], for which the IC50 in test [1] (antiproliferation) and in test [2] (antiproliferation) was not above 20 µM each time.

As to `CNS(=O)(=O)c1ccc(Nc2nc(Nc3cc(OC)cc(OC)c3)ncc2F)cc1OC` [compound 884], the IC50 in test [1] (antiproliferation) and in test [2] (antiproliferation) was not above 20 µM each time.

As to `Oc1cccc(Nc2nc(Nc3cccc(-c4ncco4)c3)ncc2F)c1` [compound 885], the IC50 in test [1] (antiproliferation) and in test [2] (antiproliferation) was not above 20 µM throughout.

As to `COc1ccc(Nc2nc(Nc3cccc(-c4ncon4)c3)ncc2F)cc1OC` [compound 886], the IC50 in test [1] (antiproliferation) and in test [2] (antiproliferation) was not above 20 µM each time.

As to `COC(=O)c1cc(Nc2ncc(F)c(Nc3ccc(OC)c(OC)c3)n2)cc(-c2ncco2)c1` [compound 887], the IC50 in test [1] (antiproliferation) and in test [2] (antiproliferation) was not above 20 µM each time.

Turning to `CC(=O)c1cc(Nc2ncc(F)c(Nc3cccc(O)c3)n2)cc(-c2ncco2)c1` [compound 888], the IC50 in test [1] (antiproliferation) and in test [2] (antiproliferation) was not above 20 µM each time.

As to `COc1ccc(Nc2nc(Nc3cc(-c4ncco4)cc(C(F)(F)F)c3)ncc2F)cc1OC` [compound 889], the IC50 in test [1] (antiproliferation) and in test [2] (antiproliferation) was not above 20 µM in each case.

Take `Oc1cccc(Nc2nc(Nc3cccc(-c4ncon4)c3)ncc2F)c1` [compound 890]: the IC50 in test [1] (antiproliferation) and in test [2] (antiproliferation) was not above 20 µM in each case.

For the compound `COC(=O)c1cc(Nc2ncc(F)c(Nc3cc(C(=O)OC)cc(-c4ncco4)c3)n2)cc(-c2ncco2)c1` [compound 891], the IC50 in test [1] (antiproliferation) and in test [2] (antiproliferation) was more than 20 µM throughout.

Consider `Fc1cnc(Nc2cc(-c3ncco3)cc(C(F)(F)F)c2)nc1Nc1cc(-c2ncco2)cc(C(F)(F)F)c1` [compound 892], for which the IC50 in test [1] (antiproliferation) and in test [2] (antiproliferation) was not above 20 µM in each case.

In the case of `Cc1cc(Nc2ncc(F)c(Nc3ccc(N4CCN(C)CC4)c(C)c3)n2)ccc1N1CCN(C)CC1` [compound 894], the IC50 in test [1] (antiproliferation) and in test [2] (antiproliferation) was not above 20 µM each time.

As for `COc1cc(Nc2ncc(F)c(Nc3cc(C)cc(C)c3)n2)cc(OC)c1OC` [compound 895], the IC50 in test [1] (antiproliferation) and in test [2] (antiproliferation) was not above 20 µM each time.

With `Cc1cc(C)cc(Nc2nc(Nc3cc(C)c(Cl)c(Cl)c3)ncc2F)c1` [compound 896], the IC50 in test [1] (antiproliferation) and in test [2] (antiproliferation) was not above 20 µM in each case.

With `Cc1cc(C)cc(Nc2nc(Nc3cc(CO)cc(CO)c3)ncc2F)c1` [compound 897], the IC50 in test [1] (antiproliferation) and in test [2] (antiproliferation) was not above 20 µM throughout.

In the case of `Cc1cc(C)cc(Nc2nc(Nc3cc(Cl)cc(Cl)c3)ncc2F)c1` [compound 898], the IC50 in test [1] (antiproliferation) and in test [2] (antiproliferation) was more than 20 µM in each case.

As a reminder, the IC50 is the concentration needed to halve the response being measured.
